Patent publication US10947197B2, “Synthesis of the radiolabeled prostate-specific membrane antigen (PSMA) inhibitor [18F]DCFPyL” (The Johns Hopkins University, priority 2016, dated 2021)

Tests used:
Assay type in all cases: physicochemical
[1] = Retesting at radiotracer expiry: radiochemical purity (HPLC) after storage under ambient conditions; conditions: for Expiry radiochemical purity, %: ambient storage
Protocol: Using the same HPLC system described for the radiochemical identity test, an appropriate volume (50 μL) of [^18F]DCFPyL was injected at a quantity injected that avoids uncorrected dead-time loss (for main peak) in the radioactive detection system. The percent radiochemical purity of [^18F]DCFPyL was determined by dividing the radioactivity associated with the [^18F]DCFPyL peak by total activity assayed in the chromatogram multiplied by 100. The product met this acceptance specification if the radiochemical purity was greater than or equal to 95%. A sample QC chromatogram is shown in FIG. 7 (DCFPyL−RT=7.6 min., k′=8.7).

[2] = Retesting at radiotracer expiry: visual inspection (appearance); conditions: n = 3, specification: clear colorless solution, no visible particulate matter
Source text: Using remote handling equipment and appropriate radiation shielding (leaded glass), the vial containing the [^18F]DCFPyL product was visually inspected under bright light. The product met this acceptance specification if it was clear and colorless with no evidence of foreign matter.

[3] = Retesting at radiotracer expiry: pH by indicator paper; conditions: specification 4.5-8.5; for pH, expiry: average n = 3, 360 min after EOS
Source text: A drop of the [^18F]DCFPyL final product matrix was applied to pH indicator paper (ColorPhast-Indicator strip—pH 2-9; sensitivity of 0.3 to 0.5 units, EMD Chemicals Inc., Gibbstown, N.J.). The strip color was matched to an indicator chart. The product met this acceptance specification if the pH was between 4.5 and 8.5.

[4] = large-scale RFM batch, 4.5 GBq/mL (122 mCi/mL), added sodium ascorbate, 99.7% at EOS
[5] = RFM synthesis (head prints REM)

Expiry radiochemical purity, % ([1]; ELIXYS synthesis, average n = 3, expiry 360 min after EOS): 100%
Expiry radiochemical purity, % ([1]; RFM synthesis (head prints REM), average n = 3, expiry 360 min after EOS): 100%
QC acceptance specifications at the 6-hour expiry ([1]; highest product yield validation run, 1.6 GBq/mL (44 mCi/mL)): meet all QC acceptance specifications
radiochemical purity 3 hours post EOS [1, 4]: 98.8%
radiochemical purity 4 hours post EOS [1, 4]: 98.5%
radiochemical purity 6 hours post EOS [1, 4]: 98.2%
radiochemical purity at the 6-hour expiry ([1]; large-scale RFM batch, 5.7 GBq/mL (153 mCi/mL), no sodium ascorbate, 97.6% at EOS): 51.1%
Expiry radiochemical purity, % ([1]; original first-in-human synthesis, average n = 3, expiry 240 min after EOS): 100%
Appearance, 360 min after EOS ([2]; ELIXYS synthesis): Conforms
Appearance, 360 min after EOS [2, 5]: Conforms
Appearance, 240 min after EOS ([2]; original synthesis): Conforms
pH, expiry ([3]; ELIXYS synthesis): 5
pH, expiry [3, 5]: 5
pH, initial ([3]; original synthesis, average n = 3, second row headed pH, initial, beside pH, expiry): 5
SMILES: O=C(O)CC[C@H](NC(=O)N[C@@H](CCCCNC(=O)c1ccc([18F])nc1)C(=O)O)C(=O)O [[^18F]DCFPyL, 2-(3-{1-carboxy-5-[(6-[^18F]fluoro-pyridine-3-carbonyl)-amino]-pentyl}-ureido)-pentanedioic acid]
